Measurements published in patent US20230364062A1, “METHOD OF TREATING MYELOID MALIGNANCIES” (Yeda Research and Development Co. Ltd., priority 2020, published 2023).

Experiments:
[1] = tested on: AML2 SRSF2 (P95H) mutant cell line; test: Cell viability assay (CellTiter-Glo), drug screen and dose response; format: cell-based, human; conditions: validation and dose response after primary screen, 48 hours
Description: (§1) Compound Libraries: Three commercial libraries were used in the screening process: the Bioactive library (New Selleck Collection 2020, n=3727), the Kinom Set (n=187), and the Epigenetic chemical probe library (Structural Genomics Consortium, n=97).
(§2) Cell viability assay: Compounds were dispensed in 384-well plates using an ECHO® 555 liquid handler (Labcyte) and sealed. On day of experiment, the concentrations of isogenic and respective wildtype cell lines were counted using a Countess™ II FL (Invtrogen™) and re-suspended at 40,000 cell/ml. 50 μL of medium was dispensed using a Multidrop™ Combi Reagent Dispenser (Thermo Fisher), bringing the total number of cells in each well to 2000. Cells were incubated for 48 hours. On day of measurement, plates were centrifuged and supernatant was removed using a Washer/Dispenser II (GNF Systems). A Washer/Dispenser II was then used to dispense CellTiter-Glo® (G7572, Promega) as per the manufacturer's instructions. The luminescence signal was then measured using a PHERAstar® FSX (BMG Labtech) and results were analyzed using Genedata Screener®. The viability of treated cells was normalized to a vehicle control, contained on each plate.
(§3) Next, a sensitivity screening of […] chemical compounds from three commercial libraries: the Bioactive collection (New Selleck Collection 2020, n=3727), the Kinom Set (n=187), and the Epigenetic chemical probe library (Structural Genomics Consortium, n=97) was carried out on the isogenic cell lines. Following a primary screen, compounds with higher cytotoxic efficacy in the mutant versus WT cells were chosen for further validation and dose response analysis. Both mutant MOLM14 and AML2 cell lines responded to various ROCK inhibitors (ROCKi), including, GSK429286A, GSK180736A, Y-39983 and specifically to RKI-1447.

[2] = tested on: MOLM14 SRSF2 (P95H) mutant cell line; test: as above; format: cell-based, human; conditions: validation and dose response after primary screen, 48 hours
Description: as §1, §2, §3

SRSF2 mutated AML = test: AML-PDX models with SRSF2 mutations in NSG mice; format: in vivo; conditions: two AML-PDX samples; 3 weeks of treatment from day 35; versus carrier control
Procedure: To evaluate whether SRSF2 mutated AML is sensitive to RKI-1447, the present inventors studied its effect in vivo with cell line and patient-derived xenograft model of AML. […] Two AML-PDX models with SRSF2 mutations were established that recapitulate the disease in vivo. NSG mice (n=5-10/sample) were injected with one to five million CD3− cells from two patients with SRSF2 mutated AML through femur. On day 35 the animals were randomized to RKI-1447 or a carrier control. Following 3 weeks of treatment week, engraftment of AML cells in BM was evaluated using flow cytometry. Both lymphoid (CD19+ B cells) and myeloid lineages (CD45dimCD33+) are detected, but dominantly are myeloid graft, in our AML-PDX models. […] To determine the grafts origin from srsf2 mutated LSC/ pre-leukaemic HSCs, human cells (CD45+) were isolated from the total BM cells and amplicon sequence of SRSF2 was performed.

[3] = tested on: MOLM14 wild type cell line; test: Cell cycle analysis after RKI-1447; format: cell-based, human; conditions: 0.5 μM RKI-1447 compared to untreated control
Description: (§4) Rho-associated protein kinases (ROCKs or Rho kinases) are key regulators of the actin cytoskeleton and are required for separating cells' duplicated genetic material during cell division to ensure proper partitioning of DNA in to daughter cells. Actin is also linked to RNA polymerase function and associated with many heterogeneous nuclear ribonucleoproteins, and may thus act to affect pre-mRNA processing and regulate transcription. Given this knowledge of ROCKs and actin, it was hypothesized that disrupting the function of ROCKs will result in cell cycle and RNA splicing alteration. In order to test this hypothesis, RNA sequencing and proteomics were performed on isogenic lines prior to and following exposure to RKI-1447. […] One of the significant up regulated protein is CDC20. CDC20 is an activator of anaphase-promoting complex/cyclosome (APC/C), and APC/Cdc 20 activity is critical for metaphase/anaphase transition.

[4] = tested on: isogenic SRSF2 mutant and wild-type cell lines; test: RNA sequencing and proteomics with pre ranked GSEA before and after RKI-1447; format: cell-based, human; conditions: both mutant and wild-type cells after exposure to RKI-1447
Description: as §4

[5] = tested on: MOLM14 SRSF2 mutant cells; test: MOLM14 cell line xenograft model of AML in NSG mice; format: in vivo; conditions: NSG mice transplanted with MOLM14 cell line model; compared to the control
SRSF2 mutant cells = test: Nuclear morphology and microtubule structure by confocal microscopy; format: cell-based, human; conditions: SRSF2 mutant cells following RKI-1447 treatment
Description: The nuclear morphology and microtubule structure of SRSF2 mutant cells was examined by confocal microscopy following RKI-1447 treatment. […] The surface area of the nucleus of mutant cells was considerably bigger than that of WT cells, and the sphericity was reduced (FIGS. 5B-D).

[6] = tested on: MOLM14 SRSF2 mutant cell line; test: Cell cycle analysis after RKI-1447; format: cell-based, human
[7] = 0.5 μM RKI-1447 compared to untreated control, MOLM14 SRSF2 mutant

Row | Compound | response of mutant cell line to ROCK inhibitor (cytotoxic efficacy mutant versus WT) [1] | response of mutant cell line to ROCK inhibitor (cytotoxic efficacy mutant versus WT) [2] | engraftment rate of AML cells in BM (flow cytometry) (SRSF2 mutated AML) | percentage of G0/G1 phase cells [3] | percentage of G2/M and S phase cells [3] | pre ranked GSEA, regulated pathways [4] | engraftment (number of CD45+ cells) [5] | apoptosis (SRSF2 mutant cells) | nuclear morphology (SRSF2 mutant cells) | cell cycle difference in MOLM14 SRSF2 mutant relative to wild type ([6]; 0.5 μM RKI-1447, P<0.01) | percentage of G0/G1 phase cells [6, 7] | percentage of G2/M and S phase cells [6, 7]
1 | CC1=C(C(=O)Nc2ccc3[nH]ncc3c2)C(c2ccc(F)cc2)NC(=O)N1 (stereo not drawn) [GSK180736A] | responded | responded |  |  |  |  |  |  |  |  |  | 
2 | CC1=C(C(=O)Nc2cc3cn[nH]c3cc2F)C(c2ccc(C(F)(F)F)cc2)CC(=O)N1 (stereo not drawn) [GSK429286A] | responded | responded |  |  |  |  |  |  |  |  |  | 
3 | O=C(NCc1cccc(O)c1)Nc1nc(-c2ccncc2)cs1 [RKI-1447] | responded | responded | significant lower engraftment rate | decrease in the percentage | higher percentage | cell cycle is one of the most significantly up-regulated pathways | significant decrease of engraftment | apoptosis | nucleus invagination and deformations | more pronounced | decrease in the percentage | higher percentage
4 | C[C@@H](N)c1ccc(C(=O)Nc2ccnc3[nH]ccc23)cc1 [Y-39983] | responded | responded |  |  |  |  |  |  |  |  |  | 
